Three compounds from patent US6919363B2, “Aryl substituted pyrazoles, triazoles and tetrazoles, and the use thereof” (Euro-Celtique S.A., priority 2000, dated 2005) can be followed below.

Read-outs that look alike come from different tables or passages of the source.

Data set [1] deals with maximal electroshock-induced seizures (MES). As to the kind of experiment: maximum electroshock seizure test (MES), anticonvulsant activity. The data set is classed as in vivo, mouse. From the text: The compounds of the present invention may be tested for in vivo anticonvulsant activity after i.v., p.o. or i.p. injection using a number of anticonvulsant tests in mice, including the maximum electroshock seizure test (MES). Maximum electroshock seizures are induced in male NSA mice weighing between 15-20 g and male Sprague-Dawley rats weighing between 200-225 g by application of current (50 mA, 60 pulses/sec, 0.8 msec pulse width, 1 sec duration, D.C., mice; 99 mA, 125 pulses/sec, 0.8 msec pulse width, 2 sec duration, D.C., rats) using a Ugo Basile ECT device (Model 7801). Mice are restrained by gripping the loose skin on their dorsal surface and saline-coated corneal electrodes are held lightly against the two corneae. Rats are allowed free movement on the bench top and ear-clip electrodes are used. Current is applied and animals are observed for a period of up to 30 seconds for the occurrence of a tonic hindlimb extensor response. A tonic seizure is defined as a hindlimb extension in excess of 90 degrees from the plane of the body. Results are treated in a quantal manner.
The ability of compounds of the present invention to block maximal electroshock-induced seizures (MES) is determined as described earlier.
A compound of the present invention is administered p.o. to mice 30 minutes before the test procedure.

Data set [2] addresses rBIIA isoform of Na+ channels (Rattus norvegicus, UniProt P04775). As to the kind of experiment: electrophysiological assay, patch-clamp recordings of voltage-sensitive Na+ currents in HEK-293 cells. In kind it is cell-based. The settings on record: rBIIA isoform of sodium channel. The procedure:
Cell preparation: HEK-293 (NaIIA-B2) cell line stably expressing the rBIIA isoform of Na^+ channels is established in-house. The cells are cultured using standard techniques, as described previously (Verdoorn, T. A, et al., Neuron 4:919-928 (1990)). For electrophysiology, cells are plated onto poly-D-lysine pre-coated Cellware 35 mm Petri dishes (BIOCOAT, Becton Dickinson) at a density of ˜10^4 cells/dish on the day of re-seeding from confluent cultures. Our experience has been that cells are suitable for recordings for 2-3 days after plating.
Patch-clamp recordings of voltage-sensitive Na^+ currents: Whole-cell voltage-clamp recordings are made using conventional patch-clamp techniques (Hamill et al., Pfluegers Arch. 391:85-100 (1981)) with an Axopatch 200A amplifier (Axon Instruments, Foster City, Calif.). The recording chamber is continuously superfused with the external solution (150 mM NaCl, 5.4 mM KCl, 1.8 mM CaCl2, 1 mM MgCl2, 10 mM HEPES, 10 mM glucose, pH 7.4 adjusted with NaOH, osmolality ˜320 mmol/kg) at a speed of about 1 mL/min. […] Currents are recorded at room temperature (22-25° C.), filtered at 3 kHz with an active 8-pole Bessel filter (Frequency Devices, Haverhill, Mass.), digitized at 10-50 μs intervals, and stored using Digidata 1200 analog/digital interface with Pclamp6/Clampex software (Axon Instruments). […]

The mark [3] stands for this setting: iv, mouse, i.v., read-out: MES i.v. ED50.

Chain of rBIIA isoform of Na+ channels (P04775 whole entry, canonical isoform): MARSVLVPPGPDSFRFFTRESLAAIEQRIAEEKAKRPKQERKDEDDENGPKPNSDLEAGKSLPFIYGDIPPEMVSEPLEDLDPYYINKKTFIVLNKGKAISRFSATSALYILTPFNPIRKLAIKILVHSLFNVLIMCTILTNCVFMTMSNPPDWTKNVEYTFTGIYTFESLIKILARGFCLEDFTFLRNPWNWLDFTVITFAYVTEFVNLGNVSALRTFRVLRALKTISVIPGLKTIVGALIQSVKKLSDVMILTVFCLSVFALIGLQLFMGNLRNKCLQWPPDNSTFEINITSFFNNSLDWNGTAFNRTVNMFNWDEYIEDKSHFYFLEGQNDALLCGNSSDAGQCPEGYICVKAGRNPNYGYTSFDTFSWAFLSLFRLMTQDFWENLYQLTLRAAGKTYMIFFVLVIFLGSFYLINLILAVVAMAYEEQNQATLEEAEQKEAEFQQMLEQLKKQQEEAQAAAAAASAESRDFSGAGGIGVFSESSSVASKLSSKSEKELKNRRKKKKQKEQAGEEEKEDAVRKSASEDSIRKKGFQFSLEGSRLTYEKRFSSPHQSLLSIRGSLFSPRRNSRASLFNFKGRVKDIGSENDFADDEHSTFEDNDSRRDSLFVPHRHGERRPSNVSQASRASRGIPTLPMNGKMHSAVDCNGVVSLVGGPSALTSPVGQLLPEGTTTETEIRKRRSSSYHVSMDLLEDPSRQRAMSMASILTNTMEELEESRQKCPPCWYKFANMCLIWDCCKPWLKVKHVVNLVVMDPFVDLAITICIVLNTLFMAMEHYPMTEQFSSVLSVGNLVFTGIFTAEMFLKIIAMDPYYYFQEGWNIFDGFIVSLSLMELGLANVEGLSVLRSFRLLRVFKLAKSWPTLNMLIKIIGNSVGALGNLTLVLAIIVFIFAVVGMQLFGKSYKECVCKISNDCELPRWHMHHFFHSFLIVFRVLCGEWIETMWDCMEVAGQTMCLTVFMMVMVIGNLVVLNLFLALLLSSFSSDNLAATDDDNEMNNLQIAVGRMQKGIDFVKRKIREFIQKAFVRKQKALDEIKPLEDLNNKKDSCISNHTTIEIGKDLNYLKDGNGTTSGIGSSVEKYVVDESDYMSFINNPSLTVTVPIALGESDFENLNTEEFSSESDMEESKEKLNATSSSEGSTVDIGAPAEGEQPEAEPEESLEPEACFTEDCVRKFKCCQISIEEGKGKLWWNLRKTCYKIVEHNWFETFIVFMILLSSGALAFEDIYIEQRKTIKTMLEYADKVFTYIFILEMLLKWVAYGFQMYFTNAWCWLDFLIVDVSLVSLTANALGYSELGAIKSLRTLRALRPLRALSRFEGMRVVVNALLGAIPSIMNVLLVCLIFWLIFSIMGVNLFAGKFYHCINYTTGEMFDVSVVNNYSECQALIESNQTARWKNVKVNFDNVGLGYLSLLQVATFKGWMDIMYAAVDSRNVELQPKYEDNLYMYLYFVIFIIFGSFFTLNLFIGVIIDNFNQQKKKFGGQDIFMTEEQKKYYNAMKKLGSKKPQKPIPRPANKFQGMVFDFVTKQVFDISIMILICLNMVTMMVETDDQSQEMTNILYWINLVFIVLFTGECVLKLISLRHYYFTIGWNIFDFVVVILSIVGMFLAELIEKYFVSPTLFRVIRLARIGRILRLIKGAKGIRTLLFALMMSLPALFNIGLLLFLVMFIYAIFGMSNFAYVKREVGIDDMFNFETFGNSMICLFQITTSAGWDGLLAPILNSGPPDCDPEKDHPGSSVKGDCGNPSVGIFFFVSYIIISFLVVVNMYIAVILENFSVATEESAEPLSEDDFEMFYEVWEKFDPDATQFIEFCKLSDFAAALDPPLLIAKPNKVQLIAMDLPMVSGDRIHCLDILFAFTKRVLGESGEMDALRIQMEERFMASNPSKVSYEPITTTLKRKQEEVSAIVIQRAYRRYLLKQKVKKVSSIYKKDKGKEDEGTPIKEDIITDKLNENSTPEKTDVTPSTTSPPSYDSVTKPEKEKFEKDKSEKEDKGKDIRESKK

In turn, `NC(=O)c1ccnn1-c1ccc(Oc2ccccc2)cc1` [1-(4-phenoxyphenyl)-1H-pyrazole-5-carboxamide] had a melting point of 142 to 144 °C. Also, the median effective dose (ED50) in data set [1] (setting [3]) is 10 mg/kg.
`NC(=O)c1ccn(-c2ccc(Oc3ccccc3)cc2)n1` [1-(4-Phenoxyphenyl)-1H-pyrazole-3-carboxamide] showed a melting point of 165 to 167 °C. Besides, the ED50 in data set [1] (setting [3]) is 0.7 mg/kg. Moreover, the Ki in data set [2] was 350 nM.
As for `O=[N+]([O-])c1ccc(Oc2ccc(-n3cncn3)cc2)cc1` [1-[4-(4-Nitrophenoxy)phenyl]-1H-[1,2,4]triazole], the ED50 in data set [1] (Mus musculus, po, mice, 30 minutes before the test procedure, read-out: MES po ED50) was found to be 6.6 mg/kg.

One may read the ED50 as the dose at which the effect has come halfway, by size or by number of responders. In general, melting point refers to the temperature of the solid-liquid transition. As usually defined, the Ki is a measure of affinity in units of concentration, obtained from inhibition or displacement.
